Data reported in ChEMBL document CHEMBL5625261, “Cytotoxic effects of kinetin riboside and its selected analogues on cancer cell lines” (Bioorg Med Chem Lett, 2024).
pIC50: −log10 of the molar value.

Key:
Caco-2 [1] = test: Cytotoxicity against human Caco-2 cells assessed as reduction in cell viability incubated for 72 hrs by MTT assay; format: functional, cell-based; conditions: Caco-2, 72 h
MCF7 [2] = test: Cytotoxicity against human MCF7 cells assessed as reduction in cell viability incubated for 48 hrs by MTT assay; format: functional, cell-based; conditions: MCF7, 48 h
OVCAR-3 [3] = test: Cytotoxicity against human OVCAR-3 cells assessed as reduction in cell viability incubated for 24 hrs by MTT assay; format: functional, cell-based; conditions: OVCAR-3, 24 h
MCF7 [4] = test: Cytotoxicity against human MCF7 cells assessed as reduction in cell viability incubated for 72 hrs by MTT assay; format: functional, cell-based; conditions: MCF7, 72 h
[5] = Cytotoxicity against human MRC5 cells assessed as reduction in cell viability incubated for 24 hrs by MTT assay; format: toxicity, cell-based
[6] = Cytotoxicity against human MRC5 cells assessed as reduction in cell viability incubated for 72 hrs by MTT assay; format: toxicity, cell-based
HeLa [7] = test: Cytotoxicity against human HeLa cells assessed as reduction in cell viability incubated for 24 hrs by MTT assay; format: functional, cell-based
MCF7 [8] = test: Cytotoxicity against human MCF7 cells assessed as reduction in cell viability incubated for 24 hrs by MTT assay; format: functional, cell-based; conditions: MCF7, 24 h
[9] = Cytotoxicity against human MRC5 cells assessed as reduction in cell viability incubated for 48 hrs by MTT assay; format: toxicity, cell-based
Caco-2 [10] = test: Cytotoxicity against human Caco-2 cells assessed as reduction in cell viability incubated for 48 hrs by MTT assay; format: functional, cell-based; conditions: Caco-2, 48 h
MIA PaCa-2 [11] = test: Cytotoxicity against human MIA PaCa-2 cells assessed as reduction in cell viability incubated for 48 hrs by MTT assay; format: functional, cell-based; conditions: MIA PaCa-2, 48 h
MIA PaCa-2 [12] = test: Cytotoxicity against human MIA PaCa-2 cells assessed as reduction in cell viability incubated for 72 hrs by MTT assay; format: functional, cell-based; conditions: MIA PaCa-2, 72 h
Caco-2 [13] = test: Cytotoxicity against human Caco-2 cells assessed as reduction in cell viability incubated for 24 hrs by MTT assay; format: functional, cell-based; conditions: Caco-2, 24 h
HeLa [14] = test: Cytotoxicity against human HeLa cells assessed as reduction in cell viability incubated for 72 hrs by MTT assay; format: functional, cell-based
HeLa [15] = test: Cytotoxicity against human HeLa cells assessed as reduction in cell viability incubated for 48 hrs by MTT assay; format: functional, cell-based
OVCAR-3 [16] = test: Cytotoxicity against human OVCAR-3 cells assessed as reduction in cell viability incubated for 72 hrs by MTT assay; format: functional, cell-based; conditions: OVCAR-3, 72 h
MIA PaCa-2 [17] = test: Cytotoxicity against human MIA PaCa-2 cells assessed as reduction in cell viability incubated for 24 hrs by MTT assay; format: functional, cell-based; conditions: MIA PaCa-2, 24 h
OVCAR-3 [18] = test: Cytotoxicity against human OVCAR-3 cells assessed as reduction in cell viability incubated for 48 hrs by MTT assay; format: functional, cell-based; conditions: OVCAR-3, 48 h
LOX IMVI = test: Antiproliferative activity against human LOX IMVI cells assessed as cell growth inhibition incubated for 72 hrs by Beckman Coulter counting method; format: functional, cell-based
DU-145 = test: Antiproliferative activity against human DU-145 cells assessed as reduction in cell viability incubated for 48 to 96 hrs by crystal violet staining assay; format: functional; conditions: time 48-96 hrs
MIA PaCa-2 [19] = test: Antiproliferative activity against human MIA PaCa-2 cells assessed as cell growth inhibition incubated for 72 hrs by Beckman Coulter counting method; format: functional, cell-based; conditions: MIA PaCa-2, 72 h
[20] = Antiproliferative activity against human HS27 cells assessed as cell growth inhibition incubated for 72 hrs by Beckman Coulter counting method; format: toxicity, cell-based
HT-29 = test: Antiproliferative activity against human HT-29 cells assessed as cell growth inhibition incubated for 72 hrs by Beckman Coulter counting method; format: functional, cell-based; conditions: HT-29, 72 h
HL-60 [21] = test: Cytotoxicity against human HL-60 cells assessed as inhibition of cell growth incubated for 5 days; format: functional, cell-based; conditions: HL-60, 120 h
HCT-15 = test: Antiproliferative activity against human HCT-15 cells assessed as cell growth inhibition incubated for 4 days by SRB assay; format: functional, cell-based; conditions: HCT-15, 96 h
MRC5 = test: Cytotoxicity against human MRC5 cells assessed as reduction in cell viability at 100 uM incubated for 24 hrs by MTT assay relative to control; format: toxicity, cell-based; conditions: mrc5, 24 h
[22] = Antiproliferative activity against human HEK cells assessed as cell growth inhibition incubated for 72 hrs by Beckman Coulter counting method; format: toxicity, cell-based
MCF7 [23] = test: Cytotoxicity against human MCF7 cells assessed as reduction in cell viability at 100 uM incubated for 24 hrs by MTT assay relative to control; format: functional
A549 = test: Antiproliferative activity against human A549 cells assessed as cell growth inhibition incubated for 48 hrs by MTT assay; format: functional, cell-based; conditions: A549, 48 h
[24] = Antiproliferative activity against human PZ-HPV-7 cells assessed as reduction in cell viability incubated for 48 to 96 hrs by crystal violet staining assay; format: toxicity, cell-based; conditions: time 48-96 hrs
G-361 = test: Antiproliferative activity against human G361 cells assessed as cell growth inhibition incubated for 72 hrs by Beckman Coulter counting method; format: functional, cell-based; conditions: G-361, 72 h
HeLa [25] = test: Cytotoxicity against human HeLa cells assessed as reduction in cell viability at 100 uM incubated for 24 hrs by MTT assay relative to control; format: functional
MCF7 [26] = test: Antiproliferative activity against human MCF7 cells assessed as cell growth inhibition incubated for 72 hrs by Calcein AM staining based fluorescence assay; format: functional; conditions: MCF7, 72 h
HL-60 [27] = test: Antiproliferative activity against human HL-60 cells assessed as cell growth inhibition incubated for 72 hrs by Calcein AM staining based fluorescence assay; format: functional; conditions: HL-60, 72 h
HCT-116 = test: Antiproliferative activity against human HCT-116 cells assessed as cell growth inhibition incubated for 72 hrs by Beckman Coulter counting method; format: functional, cell-based; conditions: HCT-116, 72 h
CCRF-CEM = test: Antiproliferative activity against human CEM cells assessed as cell growth inhibition incubated for 72 hrs by Calcein AM staining based fluorescence assay; format: functional
M4Beu cell line = test: Cytotoxicity against human M4Beu cell line assessed as inhibition of cell growth incubated for 14 days by crystal violet staining based assay; format: functional; conditions: 336 h
B16 = test: Cytotoxicity against mouse B16 cells assessed as inhibition of cell growth incubated for 10 days by crystal violet staining based assay; format: functional; conditions: B16, 240 h
HeLa [28] = test: Antiproliferative activity against human HeLa cells assessed as cell growth inhibition incubated for 72 hrs by Calcein AM staining based fluorescence assay; format: functional
A-375 = test: Antiproliferative activity against human A-375 cells assessed as cell growth inhibition incubated for 72 hrs by Beckman Coulter counting method; format: functional, cell-based; conditions: A-375, 72 h

Compound: Nc1nc(NCc2ccco2)nc2c1ncn2[C@@H]1O[C@H](CO)[C@@H](O)[C@H]1O
- pIC50 (Caco-2 [1]): < 4.00
- pIC50 (MCF7 [2]): < 4.00
- pIC50 (OVCAR-3 [3]): < 4.00
- pIC50 (MCF7 [4]): < 4.00
- IC50 at 24 h [5]: > 100 µM
- IC50 at 72 h [6]: > 100 µM
- pIC50 (HeLa [7]): < 4.00
- pIC50 (MCF7 [8]): < 4.00
- IC50 at 48 h [9]: > 100 µM
- pIC50 (Caco-2 [10]): < 4.00
- pIC50 (MIA PaCa-2 [11]): < 4.00
- pIC50 (MIA PaCa-2 [12]): < 4.00
- pIC50 (Caco-2 [13]): < 4.00
- pIC50 (HeLa [14]): < 4.00
- pIC50 (HeLa [15]): < 4.00
- pIC50 (OVCAR-3 [16]): < 4.00
- pIC50 (MIA PaCa-2 [17]): < 4.00
- pIC50 (OVCAR-3 [18]): < 4.00

Compound: Nc1nc(NCc2ccco2)c2ncn([C@@H]3O[C@H](CO)[C@@H](O)[C@H]3O)c2n1
- pIC50 (Caco-2 [1]): < 4.00
- pIC50 (MCF7 [2]): < 4.00
- pIC50 (OVCAR-3 [3]): < 4.00
- pIC50 (MCF7 [4]): < 4.00
- IC50 at 24 h [5]: > 100 µM
- IC50 at 72 h [6]: > 100 µM
- pIC50 (HeLa [7]): < 4.00
- pIC50 (MCF7 [8]): < 4.00
- IC50 at 48 h [9]: > 100 µM
- pIC50 (Caco-2 [10]): < 4.00
- pIC50 (MIA PaCa-2 [11]): < 4.00
- pIC50 (MIA PaCa-2 [12]): < 4.00
- pIC50 (Caco-2 [13]): < 4.00
- pIC50 (HeLa [14]): < 4.00
- pIC50 (HeLa [15]): < 4.00
- pIC50 (OVCAR-3 [16]): < 4.00
- pIC50 (MIA PaCa-2 [17]): < 4.00
- pIC50 (OVCAR-3 [18]): < 4.00

Compound: OC[C@H]1O[C@@H](n2cnc3c(NCc4ccco4)ncnc32)[C@H](O)[C@@H]1O [KINETIN RIBOSIDE]
- pIC50 (LOX IMVI): 6.80
- pIC50 (Caco-2 [1]): 4.63
- Activity (DU-145): 35%
- pIC50 (MCF7 [2]): 5.55
- pIC50 (MIA PaCa-2 [19]): 6.80
- IC50 at 72 h [20]: 0.18 µM
- pIC50 (OVCAR-3 [3]): < 4.00
- pIC50 (HT-29): 6.80
- pIC50 (HL-60 [21]): 6.01
- pIC50 (HCT-15): 4.91
- Activity (MRC5): ~ 80%
- IC50 at 72 h [22]: 0.11 µM
- Activity (MCF7 [23]): ~80%
- pIC50 (MCF7 [4]): 5.57
- pIC50 (A549): 4.98
- Activity [24]: 85%
- IC50 at 24 h [5]: 18 µM
- pIC50 (G-361): 6.80
- Activity (HeLa [25]): ~30%
- pIC50 (MCF7 [26]): 5.37
- IC50 at 72 h [6]: 1.7 µM
- pIC50 (HL-60 [27]): 6.10
- pIC50 (HeLa [7]): < 4.00
- pIC50 (MCF7 [8]): 4.79
- IC50 at 48 h [9]: 2.5 µM
- pIC50 (HCT-116): 6.80
- pIC50 (CCRF-CEM): 5.80
- pIC50 (M4Beu cell line): 5.82
- pIC50 (Caco-2 [10]): 4.38
- pIC50 (B16): 6.70
- pIC50 (MIA PaCa-2 [11]): 5.51
- pIC50 (MIA PaCa-2 [12]): 5.59
- pIC50 (Caco-2 [13]): 4.06
- pIC50 (HeLa [14]): < 4.00
- pIC50 (HeLa [28]): 5.37
- pIC50 (A-375): 6.80
- pIC50 (HeLa [15]): < 4.00
- pIC50 (OVCAR-3 [16]): 5.51
- pIC50 (MIA PaCa-2 [17]): < 4.00
- pIC50 (OVCAR-3 [18]): 5.11

Compound: OC[C@H]1O[C@@H](n2cnc3c(NCc4ccco4)ncnc32)C[C@@H]1O
- pIC50 (Caco-2 [1]): < 4.00
- pIC50 (MCF7 [2]): < 4.00
- pIC50 (OVCAR-3 [3]): < 4.00
- pIC50 (MCF7 [4]): < 4.00
- IC50 at 24 h [5]: > 100 µM
- IC50 at 72 h [6]: > 100 µM
- pIC50 (HeLa [7]): < 4.00
- pIC50 (MCF7 [8]): < 4.00
- IC50 at 48 h [9]: > 100 µM
- pIC50 (Caco-2 [10]): < 4.00
- pIC50 (MIA PaCa-2 [11]): < 4.00
- pIC50 (MIA PaCa-2 [12]): < 4.00
- pIC50 (Caco-2 [13]): < 4.00
- pIC50 (HeLa [14]): < 4.00
- pIC50 (HeLa [15]): < 4.00
- pIC50 (OVCAR-3 [16]): < 4.00
- pIC50 (MIA PaCa-2 [17]): < 4.00
- pIC50 (OVCAR-3 [18]): < 4.00
